Experimental data reported in patent publication EP3727588B1, “ACTIVATOR PEPTIDES OF THE ENZYME ADAM 10 AND RELATED USES IN THE TREATMENT OF ALZHEIMER'S DISEASE” (UNIVERSITA' DEGLI STUDI DI MILANO, priority 2017, dated 2019).
Peptide text beside a SMILES is read from it.

Experiments:
ADAM10/AP2 complex [1] = molecular target: T1, ADAM10/AP2 complex (Rattus norvegicus, UniProt P62944); assay: co-immunoprecipitation of ADAM10 with AP2 (α-adaptin) in acute hippocampal slices; assay type: cell-based; conditions: 10 µM, 30 minutes
T1 construct: endogenous in cells; host or cells: primary hippocampal neurons of rat embryos, DIV14
T1 sequence (P18484 whole entry): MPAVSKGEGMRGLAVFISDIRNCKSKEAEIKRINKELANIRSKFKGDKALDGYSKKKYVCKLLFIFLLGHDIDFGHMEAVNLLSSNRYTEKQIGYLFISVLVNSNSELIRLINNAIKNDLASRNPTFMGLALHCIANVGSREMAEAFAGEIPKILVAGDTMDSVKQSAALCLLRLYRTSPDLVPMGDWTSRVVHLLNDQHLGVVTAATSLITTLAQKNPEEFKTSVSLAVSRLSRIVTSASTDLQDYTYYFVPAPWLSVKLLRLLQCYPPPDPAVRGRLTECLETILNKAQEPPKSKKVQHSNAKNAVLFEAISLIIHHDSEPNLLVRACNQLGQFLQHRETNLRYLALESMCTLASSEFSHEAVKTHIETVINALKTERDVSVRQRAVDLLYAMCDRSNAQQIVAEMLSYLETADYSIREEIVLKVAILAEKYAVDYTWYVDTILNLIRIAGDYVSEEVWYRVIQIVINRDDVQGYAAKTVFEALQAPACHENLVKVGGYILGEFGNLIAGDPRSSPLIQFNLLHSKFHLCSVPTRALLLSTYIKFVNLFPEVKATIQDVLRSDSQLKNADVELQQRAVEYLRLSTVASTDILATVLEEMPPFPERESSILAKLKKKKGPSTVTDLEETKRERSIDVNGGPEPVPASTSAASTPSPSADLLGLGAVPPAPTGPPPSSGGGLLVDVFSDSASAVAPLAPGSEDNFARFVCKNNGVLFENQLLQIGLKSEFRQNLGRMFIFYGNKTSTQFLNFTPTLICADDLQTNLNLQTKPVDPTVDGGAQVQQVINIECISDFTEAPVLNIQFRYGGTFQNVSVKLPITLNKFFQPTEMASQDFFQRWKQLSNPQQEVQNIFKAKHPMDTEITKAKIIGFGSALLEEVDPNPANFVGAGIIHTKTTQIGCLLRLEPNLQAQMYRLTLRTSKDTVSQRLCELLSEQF
T1 sequence (P62744 whole entry, further chain): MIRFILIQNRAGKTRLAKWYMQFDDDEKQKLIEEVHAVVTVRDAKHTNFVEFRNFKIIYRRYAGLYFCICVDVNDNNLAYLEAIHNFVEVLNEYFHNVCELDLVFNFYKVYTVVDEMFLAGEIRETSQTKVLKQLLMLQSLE
T1 sequence (P84092 whole entry, further chain): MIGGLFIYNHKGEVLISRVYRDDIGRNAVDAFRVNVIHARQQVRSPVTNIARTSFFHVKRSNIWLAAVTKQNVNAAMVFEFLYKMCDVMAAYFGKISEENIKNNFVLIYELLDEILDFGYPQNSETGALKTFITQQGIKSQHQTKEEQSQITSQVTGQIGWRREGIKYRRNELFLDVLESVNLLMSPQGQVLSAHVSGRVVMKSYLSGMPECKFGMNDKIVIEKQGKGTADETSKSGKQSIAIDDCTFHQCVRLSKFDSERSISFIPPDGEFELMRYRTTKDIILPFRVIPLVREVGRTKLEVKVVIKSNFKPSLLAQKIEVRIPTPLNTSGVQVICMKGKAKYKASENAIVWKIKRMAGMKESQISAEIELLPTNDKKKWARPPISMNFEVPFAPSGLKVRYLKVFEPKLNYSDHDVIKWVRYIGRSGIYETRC
T1 sequence (P62944 whole entry): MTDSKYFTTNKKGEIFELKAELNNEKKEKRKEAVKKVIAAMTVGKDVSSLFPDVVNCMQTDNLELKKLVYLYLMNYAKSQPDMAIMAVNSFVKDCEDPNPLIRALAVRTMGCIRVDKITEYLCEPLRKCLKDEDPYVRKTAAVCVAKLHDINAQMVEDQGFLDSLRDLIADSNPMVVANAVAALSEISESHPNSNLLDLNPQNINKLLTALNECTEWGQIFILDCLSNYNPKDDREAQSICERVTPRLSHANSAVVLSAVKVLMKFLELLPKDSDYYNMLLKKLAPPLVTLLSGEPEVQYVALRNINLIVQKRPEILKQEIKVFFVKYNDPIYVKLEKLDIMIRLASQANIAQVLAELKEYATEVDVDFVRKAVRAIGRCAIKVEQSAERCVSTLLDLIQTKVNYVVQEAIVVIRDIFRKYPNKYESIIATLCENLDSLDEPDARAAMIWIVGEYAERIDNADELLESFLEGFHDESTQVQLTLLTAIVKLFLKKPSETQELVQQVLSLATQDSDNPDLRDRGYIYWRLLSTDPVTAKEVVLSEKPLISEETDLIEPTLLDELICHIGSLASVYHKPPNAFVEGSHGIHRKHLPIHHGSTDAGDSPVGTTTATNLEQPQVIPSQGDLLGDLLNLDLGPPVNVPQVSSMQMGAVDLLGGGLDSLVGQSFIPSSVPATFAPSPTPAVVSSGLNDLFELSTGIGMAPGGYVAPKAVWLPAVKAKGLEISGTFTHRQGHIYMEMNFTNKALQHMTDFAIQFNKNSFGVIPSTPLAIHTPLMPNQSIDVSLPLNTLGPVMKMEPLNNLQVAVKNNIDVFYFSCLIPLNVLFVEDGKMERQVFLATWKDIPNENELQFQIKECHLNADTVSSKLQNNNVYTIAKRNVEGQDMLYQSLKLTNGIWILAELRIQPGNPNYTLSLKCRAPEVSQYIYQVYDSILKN
Procedure: (§1) The acute hippocampal slices were obtained from rat brain. After carefully removing the meninges, the hippocampus was isolated and dissected using the McIlwain tissue chopper. The hippocampal slices were then transferred into supports containing Krebs buffer, in the presence of a constant flow of 95% O2 and 5% CO2 5% (v/v). The acute slices were kept for 45 min at ambient temperature before proceeding with treatment with the peptide.
(§2) For the treatments of the acute hippocampal slices, all the peptides were diluted in Krebs buffer at a concentration of 10µM. The treatments were performed for 30 minutes and subsequently the sample was immediately frozen.
(§3) For the co-immunoprecipitation experiments, aliquots of 40-100 µg of lysate were incubated at 4°C in RIA 1X buffer (NaCl 200 mM, EDTA 10 mM, Na2HPO4 10 mM, Nonidet P-40, 0.5% and 0.1% SDS) in a final volume of 150 µl with 1-2 µg of antibody. The following day the protein complex A/G (Santa Cruz Biotechnology) was added, conjugated with agarose marbles, and the incubation was continued for 2 hours. After three washes with RIA buffer the samples were loaded onto SDS-PAGE and analysed through Western Blot.
(§4) The quantization of the Western Blot analyses was performed through an image analysis program (ImageLab -BioRad). The levels of proteins were expressed as optical density (OD) related to the different measurements and were normalized on respective tubulin levels.
(§5) The samples were then processed, and the total homogenate was used to evaluate the interaction levels between ADAM10 and the complex AP2. The co-immunoprecipitation experiment (co-IP), performed using an anti-ADAM10 antibody, made it possible to verify that two of the three peptides (PEP2 (SEQ ID NO:2) and PEP3 (SEQ ID NO:1)) were able to interfere with the interaction between ADAM10 and α-adaptin, one of the subunits that constitutes the complex AP2 (Figure 1A).

[2] = tested on: T2, ADAM10/AP2 complex (Rattus norvegicus); assay: as above; assay type: cell-based; conditions: 10 µM, 30 min
T2 construct: endogenous in cells; host or cells: primary hippocampal neurons of rat embryos, DIV14
T2 sequence (P18484 whole entry): as the sequence (P18484 whole entry) above
T2 sequence (P62744 whole entry, further chain): as the sequence (P62744 whole entry, further chain) above
T2 sequence (P84092 whole entry, further chain): as the sequence (P84092 whole entry, further chain) above
T2 sequence (P62944 whole entry, further chain): as the sequence (P62944 whole entry) above
Procedure: as §1, §2, §3, §4, §5

[3] = blood-brain barrier crossing, anti-TAT immunohistochemistry on coronal brain sections; assay type: in vivo; conditions: C57BL/6 mice, intraperitoneal injection 3 nmoles/g, 24 hours
Procedure: For the immunohistochemistry analyses, mice treated with the peptide were anaesthetized deeply and subjected to transcardial perfusion with 4% paraformaldehyde (prepared in PBS, pH 7.2-7.4), through the use of a peristaltic pump. The fixing liquid was inserted into the blood circulation through the left ventricle and after 10 minutes the brain was isolated. The sample was then post-fixed for 1 hour and 30 minutes at 4°C, then washed with PBS 1X and placed o/n in a 30% sucrose solution. The following day the sample was washed again with PBS 1X cut with the vibratome obtaining coronal sections of 50µm. Then the sections were stained through free-floating immunofluorescence technique. The fluorescence images were acquired using the Zeiss Confocal LSM510 Meta system with 63x objective at a resolution of 1024x1024 pixels. […]
The coronal sections were incubated with a specific antibody for the identification of the MAP2 neurons, and an antibody able to recognize the TAT sequence of HIV-1 present in the CPPs. As shown by the arrows in Figure 6, the presence of a specific signal of the anti-TAT antibody can be identified, which can only be detected in the coronal sections of brain of animals treated with CPPs. […] In the brain of animals only treated with saline solution (Figure 6, panel A), such signal cannot be detected.

ADAM10/AP2 complex [4] = molecular target: T1, ADAM10/AP2 complex; assay: co-immunoprecipitation of ADAM10 with AP2 subunits in primary cultures of hippocampal neurons; assay type: cell-based
Procedure: The primary cultures were prepared from hippocampi of rat embryos as described in [20]. The cultures were grown in media containing Neurobasal (Life Technologies), B27 2% (Life Technologies), GlutaMAX 1% (Life Technologies) and Penicillin/Streptomycin 1% (Pen/Strep; Life Technologies), a 37 °C with 95% humidity and 5% CO2 for 14 days. The cells were treated by diluting the peptides in the complete growth medium, at a final concentration of 1 µM. The treatment was performed for 30 minutes at 37°C, then the neurons were lysed.
as §3, §4
After 30 minutes, the cells were processed and the cell lysate was used for performing the co-IP analyses.

[5] = primary hippocampal neurons DIV 14, 1 µM, 30 minutes

CC(C)C[C@H](NC(=O)[C@H](CCCNC(=N)N)NC(=O)[C@@H]1CCCN1C(=O)[C@H](CCCNC(=N)N)NC(=O)[C@H](CCC(N)=O)NC(=O)[C@H](CCCNC(=N)N)NC(=O)[C@@H]1CCCN1C(=O)[C@@H]1CCCN1C(=O)[C@H](CC(C)C)NC(=O)CNC(=O)[C@H](CO)NC(=O)CNC(=O)CNC(=O)[C@H](CCCNC(=N)N)NC(=O)[C@H](CCCNC(=N)N)NC(=O)[C@H](CCCNC(=N)N)NC(=O)[C@H](CCC(N)=O)NC(=O)[C@H](CCCNC(=N)N)NC(=O)[C@H](CCCNC(=N)N)NC(=O)[C@H](CCCCN)NC(=O)[C@H](CCCCN)NC(=O)[C@H](CCCNC(=N)N)NC(=O)CNC(=O)[C@@H](N)Cc1ccc(O)cc1)C(=O)O [PEP2] (H-YGRKKRRQRRRGGSGLPPRQRPRL-OH)
reduction of the interaction between ADAM10 and α-adaptin (ADAM10/AP2 complex [1]): 58.4%
PEP/inPEP ratio of optical density (OD), ADAM10/AP2 complex (α-adaptin) [2]: 41.60 ± 23.86%
capacity to cross the blood-brain barrier (BBB) [3]: can cross the BBB and penetrate into the neuron cells
PEP/inPEP OD, ADAM10/AP2 complex, µ2 (ADAM10/AP2 complex [4]; primary cultures of neurons, 1µM, 30 min): 52.01 ± 3.77%
reduction in the levels of interaction between ADAM10 and the complex AP2, subunit µ2 (ADAM10/AP2 complex [4]; [5]): 48%
reduction in the levels of interaction between ADAM10 and the complex AP2, subunit α-adaptin (ADAM10/AP2 complex [4]; [5]): 66%
